Laboratory results taken from PubChem BioAssay AID194 (DTP/NCI, 2004).
Where “and” joins values, the source holds several entries; their conditions need not be identical. Equal values may be shown once. Inconclusive results are not listed.

System: BDF1 mice, B16 melanoma s.c., survival/tumor T/C
Test: NCI In Vivo Anticancer Drug Screen. Data for tumor model B16 Melanoma (subcutaneous) in B6D2F1 (BDF1) mice
Description: The antitumor activity of compounds was measured in mice bearing transplantable tumors. Survival or tumor size were measured and the results are expressed as the measurement made in the treated group (T) divided by the measurement made in the vehicle treated control group (C). The tumor model used in this assay is B16 Melanoma (subcutaneous) in B6D2F1 (BDF1) mice

[1] = endpoint: median survival time, dose: 100.0 mg/kg/injection, schedule: Q01DX009 (ip), vehicle: saline with Tween-80, higher = longer survival
[2] = endpoint: median survival time, dose: 400.0 mg/kg/injection, schedule: Q01DX009 (ip), vehicle: saline with Tween-80, higher = longer survival
[3] = endpoint: median tumor weight (est.), dose: 100.0 mg/kg/injection, schedule: Q01DX009 (ip), vehicle: saline with Tween-80, higher = larger tumour

CCN1/C(=C/C=C/C=C/c2sc3ccccc3[n+]2CC)Sc2ccccc21
T/C (endpoint: median survival time, dose: 63.0 micrograms/kg/injection, schedule: Q01DX009 (ip), vehicle: saline, higher = longer survival): 117 % of control | T/C (endpoint: median survival time, dose: 125.0 micrograms/kg/injection, schedule: Q01DX009 (ip), vehicle: saline, higher = longer survival): 120 % of control

CC1(C)N=C(N)N=C(N)N1c1ccc(CNC(=O)Nc2cccc(S(=O)(=O)F)c2)cc1
T/C (endpoint: median survival time, dose: 100.0 mg/kg/injection, schedule: Q04DX003 (ip), vehicle: saline, higher = longer survival): 100 % of control | T/C (endpoint: median survival time, dose: 225.0 mg/kg/injection, schedule: Q04DX003 (ip), vehicle: saline, higher = longer survival): 122 % of control

Nc1n[nH]c(N)n1
T/C [1]: 93 % of control | T/C [2]: 97 % of control | T/C (endpoint: median survival time, dose: 800.0 mg/kg/injection, schedule: Q01DX009 (ip), vehicle: saline with Tween-80, higher = longer survival): 97 % of control | T/C [3]: 100 % of control | T/C (endpoint: median tumor weight (est.), dose: 800.0 mg/kg/injection, schedule: Q01DX009 (ip), vehicle: saline with Tween-80, higher = larger tumour): 154 % of control

C[C@]12C=CC(=O)C=C1CC[C@@H]1[C@@H]2C(=O)C[C@@]2(C)[C@H]1CC[C@]2(O)C(=O)CO
T/C (endpoint: median survival time, dose: 50.0 mg/kg/injection, schedule: Q01DX009 (ip), vehicle: Klucel (hydroxypropylcellulose) (HPC), higher = longer survival): 95 % of control and 123 % of control | T/C (endpoint: median survival time, dose: 50.0 mg/kg/injection, schedule: Q01DX009 (ip), vehicle: saline with Tween-80, higher = longer survival): 124 % of control | T/C (endpoint: median survival time, dose: 50.0 mg/kg/injection, schedule: Q01DX009 (ip), vehicle: saline, higher = longer survival): 116 % of control | T/C [1]: 151 % of control | T/C (endpoint: median survival time, dose: 100.0 mg/kg/injection, schedule: Q01DX009 (ip), vehicle: saline, higher = longer survival): 100 % of control | T/C (endpoint: median survival time, dose: 200.0 mg/kg/injection, schedule: Q01DX009 (ip), vehicle: saline with Tween-80, higher = longer survival): 157 % of control and 168 % of control | T/C [2]: 159 % of control | T/C (endpoint: median tumor weight (est.), dose: 50.0 mg/kg/injection, schedule: Q01DX009 (ip), vehicle: Klucel (hydroxypropylcellulose) (HPC), higher = larger tumour): 12 % of control and 30 % of control | T/C (endpoint: median tumor weight (est.), dose: 50.0 mg/kg/injection, schedule: Q01DX009 (ip), vehicle: saline with Tween-80, higher = larger tumour): 26 % of control | T/C (endpoint: median tumor weight (est.), dose: 100.0 mg/kg/injection, schedule: Q01DX009 (ip), vehicle: Klucel (hydroxypropylcellulose) (HPC), higher = larger tumour): 37 % of control | T/C [3]: 41 % of control | T/C (endpoint: median tumor weight (est.), dose: 200.0 mg/kg/injection, schedule: Q01DX009 (ip), vehicle: Klucel (hydroxypropylcellulose) (HPC), higher = larger tumour): 22 % of control | T/C (endpoint: median tumor weight (est.), dose: 200.0 mg/kg/injection, schedule: Q01DX009 (ip), vehicle: saline with Tween-80, higher = larger tumour): 12 % of control

NC(=O)c1ccc[n+](Cc2c(Cl)cccc2Cl)c1
T/C (endpoint: median survival time, dose: 0.75 mg/kg/injection, schedule: Q01DX009 (ip), vehicle: saline, higher = longer survival): 106 % of control | T/C (endpoint: median survival time, dose: 3.0 mg/kg/injection, schedule: Q01DX009 (ip), vehicle: saline, higher = longer survival): 98 % of control | T/C (endpoint: median survival time, dose: 6.0 mg/kg/injection, schedule: Q01DX009 (ip), vehicle: saline, higher = longer survival): 102 % of control and 117 % of control | T/C (endpoint: median survival time, dose: 12.0 mg/kg/injection, schedule: Q01DX009 (ip), vehicle: saline, higher = longer survival): 106 % of control and 114 % of control

CCCCC[C@H](O)/C=C/[C@H]1[C@H](O)CC(=O)[C@@H]1C/C=C\CCCC(=O)O
T/C (endpoint: median survival time, dose: 0.75 mg/kg/injection, schedule: Q04DX002 (ip), vehicle: Klucel (hydroxypropylcellulose) (HPC), higher = longer survival): 98 % of control | T/C (endpoint: median survival time, dose: 3.0 mg/kg/injection, schedule: Q04DX002 (ip), vehicle: Klucel (hydroxypropylcellulose) (HPC), higher = longer survival): 118 % of control | T/C (endpoint: median survival time, dose: 6.0 mg/kg/injection, schedule: Q04DX002 (ip), vehicle: Klucel (hydroxypropylcellulose) (HPC), higher = longer survival): 122 % of control | T/C (endpoint: median survival time, dose: 12.5 mg/kg/injection, schedule: Q04DX002 (ip), vehicle: saline with Tween-80, higher = longer survival): 87 % of control

CNc1nc(N(C)C)nc(N(C)C)n1
T/C (endpoint: median survival time, dose: 67.0 mg/kg/injection, schedule: Q01DX009 (ip), vehicle: water, higher = longer survival): 112 % of control | T/C (endpoint: median survival time, dose: 100.0 mg/kg/injection, schedule: Q04DX003 (ip), vehicle: water, higher = longer survival): 96 % of control | T/C (endpoint: median survival time, dose: 150.0 mg/kg/injection, schedule: Q04DX003 (ip), vehicle: water, higher = longer survival): 95 % of control | T/C (endpoint: median survival time, dose: 225.0 mg/kg/injection, schedule: Q04DX003 (ip), vehicle: water, higher = longer survival): 90 % of control

CC(C)(C)c1ccc(CN2CCN(C(c3ccccc3)c3ccc(Cl)cc3)CC2)cc1 (stereo unspecified)
T/C (endpoint: median survival time, dose: 22.5 micrograms/kg/injection, schedule: Q01DX009 (ip), vehicle: Klucel (hydroxypropylcellulose) (HPC), higher = longer survival): 91 % of control | T/C (endpoint: median survival time, dose: 45.0 micrograms/kg/injection, schedule: Q01DX009 (ip), vehicle: Klucel (hydroxypropylcellulose) (HPC), higher = longer survival): 88 % of control
